Laboratory results taken from ChEMBL document CHEMBL1140551, “N-Benzyl-3-sulfonamidopyrrolidines as novel inhibitors of cell division in E. coli” (2007).
≈ marks a conversion by molar mass, not a printed value. Calls of active or inactive are those of the source. The calls are words filed in the database; no cut-off is given here.

What was measured:
Escherichia coli [1] = assay: Inhibition of GTPase activity of Escherichia coli FtsZ at 100 uM
Escherichia coli [2] = assay: Antimicrobial activity against AcrAB efflux pump-deficient Escherichia coli DCR39; type: functional
Escherichia coli [3] = assay: Induction of filamentation in Escherichia coli DCR39 at 5 uM after 15 hrs; type: functional, organism-based

Structure (SMILES) | inhibition (Escherichia coli [1]) | MIC (Escherichia coli [2]) | Activity (Escherichia coli [3])
Cc1ccc(F)cc1S(=O)(=O)N[C@@H]1CCN(Cc2ccc3[nH]ccc3c2)C1 | 24.9% | > 80 µM | –
Cc1ccc(F)cc1S(=O)(=O)N[C@@H]1CCN(Cc2ccc(Oc3ccccc3)cc2)C1 | 12.3% | 20 µM (≈ 8.81 µg/mL) | –
Cc1ccc(F)cc1S(=O)(=O)N[C@@H]1CCN(Cc2ccc3c(c2)OCO3)C1 | 14.6% | > 80 µM | –
C#Cc1ccc(S(=O)(=O)N[C@@H]2CCN(Cc3ccc(OC(C)C)c(N=[N+]=[N-])c3)C2)cc1 | – | > 64 µM | –
CC(C)Cc1ccc(CN2CCC[C@@H](CNS(=O)(=O)c3cc(Cl)ccc3Cl)C2)cc1 | – | 20 µM (≈ 9.39 µg/mL) | –
Cc1ccc(F)cc1S(=O)(=O)N[C@@H]1CCN(Cc2ccc(Br)cc2)C1 | 31.5% | > 80 µM | –
Cc1ccc(F)cc1S(=O)(=O)N[C@@H]1CCN(C(=O)c2ccc(OC(C)C)cc2)C1 | 31.9% | > 80 µM | –
Cc1ccc(F)cc1S(=O)(=O)N[C@@H]1CCN(Cc2ccc(-c3ccccc3)cc2)C1 | 9.4% | < 10 µM | –
Cc1ccc(F)cc1S(=O)(=O)N[C@@H]1CCN(Cc2cccc3[nH]ccc23)C1 | 29.9% | > 80 µM | –
Cc1ccc(F)cc1S(=O)(=O)N[C@@H]1CCN(Cc2ccc(CC(C)C)cc2)C1 | 13.7% | < 10 µM | –
Cc1ccc(F)cc1S(=O)(=O)N[C@@H]1CCN(Cc2ccc(C(=O)c3ccccc3)cc2)C1 | – | > 80 µM | –
Cc1ccc(F)cc1S(=O)(=O)N[C@@H]1CCN(Cc2ccc(C(F)(F)F)cc2)C1 | 26.9% | > 80 µM | –
CC(C)Cc1ccc(CN2CC[C@@H](NS(=O)(=O)c3cc(Cl)ccc3Cl)C2)cc1 | – | 10 µM (≈ 4.41 µg/mL) | Active
C#Cc1ccc(S(=O)(=O)N[C@@H]2CCN(Cc3ccc(CC(C)C)cc3)C2)cc1 | – | < 12 µM | –
C#Cc1ccc(S(=O)(=O)N[C@@H]2CCN(Cc3ccc(N=[N+]=[N-])cc3)C2)cc1 | – | > 40 µM | –
